PubChem BioAssay (NCI)
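Protocol summary: plate cells (96-well), add compound at 5 concentrations, incubate 48 h, interpolate endpoints linearly. GI50 = concentration required for 50% inhibition of growth. TGI marks complete inhibition of growth.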

Tests used:
Test in all cases: inhibition of tumour cell growth, NCI panel, 48 h
M14 melanoma = tested on: M14 melanoma
IGROV1 ovarian = tested on: IGROV1 ovarian
UACC-62 melanoma = tested on: UACC-62 melanoma
SR leukemia = tested on: SR leukemia
SK-MEL-5 melanoma = tested on: SK-MEL-5 melanoma
A549 NSCLC = tested on: A549 NSCLC
K-562 leukemia = tested on: K-562 leukemia
SK-MEL-2 melanoma = tested on: SK-MEL-2 melanoma
SW-620 colon = tested on: SW-620 colon
A498 renal = tested on: A498 renal

Row | SMILES | TGI (M14 melanoma) | TGI (IGROV1 ovarian) | TGI (UACC-62 melanoma) | TGI (SR leukemia) | TGI (SK-MEL-5 melanoma) | TGI (A549 NSCLC) | TGI (K-562 leukemia) | TGI (SK-MEL-2 melanoma) | TGI (SW-620 colon) | TGI (A498 renal) | GI50 (M14 melanoma) | GI50 (IGROV1 ovarian) | GI50 (UACC-62 melanoma) | GI50 (SR leukemia) | GI50 (SK-MEL-5 melanoma) | GI50 (A549 NSCLC) | GI50 (K-562 leukemia) | GI50 (SK-MEL-2 melanoma) | GI50 (SW-620 colon) | GI50 (A498 renal)
1 | N#CC(C#N)=c1ccc(=C2NCC3CCCN23)cc1 (stereo not given) | > 100 µM | > 100 µM | > 100 µM | > 100 µM | > 100 µM | > 100 µM | > 100 µM | > 100 µM | > 100 µM | > 100 µM | – | – | – | – | – | – | – | – | – | –
2 | COc1cc(C(=O)/C=C/c2sc(Cl)nc2Cl)cc(OC)c1OC | 3.57 µM | 3.22 µM | 3.61 µM | 3.23 µM | 3.96 µM | 11.8 µM | > 100 µM | 5.86 µM | 3.45 µM | 20.5 µM | 1.85 µM | 1.68 µM | 1.86 µM | 0.384 µM | 1.95 µM | 3.18 µM | 1.84 µM | 2.39 µM | 1.68 µM | 7.62 µM
3 | COc1ccc(-n2/c(=N/C(=S)N(C)C)ss/c2=N\C(=S)N(C)C)cc1 | > 100 µM | > 100 µM | 24.8 µM | > 100 µM | – | > 100 µM | > 100 µM | > 100 µM | > 100 µM | > 100 µM | – | – | – | – | – | – | – | – | – | –
4 | CC(=O)NC1=C(NCC(C)(C)C)C(=O)c2ccccc2C1=O | > 100 µM | > 100 µM | > 100 µM | > 100 µM | > 100 µM | > 100 µM | > 100 µM | > 100 µM | > 100 µM | – | – | – | – | – | – | – | – | – | – | –
5 | Cc1nc2c(nc1C)C(=O)c1ccccc1C2=O | 2.26 µM | 27.2 µM | 2.42 µM | 28.2 µM | 0.518 µM | 3.41 µM | 32.1 µM | 6.57 µM | 10.1 µM | 8.98 µM | – | – | – | – | – | – | – | – | – | –
6 | O=C1NC2(CCCCC2)C2CCCCC(O)C12 (stereo not given) | – | > 100 µM | > 100 µM | > 100 µM | – | > 100 µM | > 100 µM | > 100 µM | > 100 µM | > 100 µM | – | – | – | – | – | – | – | – | – | –
7 | O=C(NCCNc1nccc(-c2c(-c3cccc(O)c3)nc3sccn23)n1)c1ccccc1O | 13.6 µM | > 73 µM | 4.91 µM | > 56.7 µM | 5.21 µM | > 51.1 µM | > 100 µM | 6.09 µM | 48.4 µM | 28.2 µM | 0.342 µM | 4.52 µM | 0.181 µM | 3.71 µM | 1.47 µM | 5.02 µM | 4.11 µM | 1.59 µM | 5.86 µM | 7.67 µM
8 | O=c1n(CC2CO2)c(=O)n(CC2CO2)n1CC1CO1 (stereo not given) | > 100 µM | 41.1 µM | > 64.1 µM | > 100 µM | > 79.9 µM | > 72 µM | > 100 µM | > 100 µM | > 100 µM | 29.9 µM | 21.9 µM | 13.2 µM | 6.51 µM | – | 14.7 µM | 5.9 µM | 51.4 µM | > 73.5 µM | 22.5 µM | 14.1 µM
